Experimental data published in patent publication US10344019B2 (priority 2010, dated 2019).
Like-named read-outs stand apart in the source and are kept apart here.

Legend:
Assay type in all cases: cell-based
[1] = tested on: HCV 1a RLuc cells (dicistronic genotype 1a H77 replicon, RLuc reporter); assay: microbe, parasite or virus in culture; details: Hepatitis C virus, read-out: 1a
In short: (§1)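 Renilla luciferase HCV replicon cells: dicistronic 1b Con1, 1a H77 or 2a JFH-1 replicons, or a JFH-1 chimera carrying J6 NS5A (M31 present). Compound in DMSO serial dilutions, 72 h incubation, then lysis and luciferase read. EC50 by non-linear regression.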

[2] = tested on: HCV 1b RLuc cells (dicistronic genotype 1b Con1 replicon, RLuc reporter); assay: microbe, parasite or virus in culture; details: Hepatitis C virus, read-out: 1b (nM)
In short: as §1

[3] = tested on: HCV 2a JFH-1 Rluc cells (dicistronic genotype 2a JFH-1 replicon, RLuc reporter); assay: microbe, parasite or virus in culture; details: Hepatitis C virus, read-out: 2a JFH
In short: as §1

[4] = tested on: HCV 2b Rluc cells (NS5A chimeric genotype 2a JFH-1 replicon with genotype 2b MD2b-1 NS5A gene, M31 present); assay: microbe, parasite or virus in culture; details: Hepatitis C virus, read-out: 2b
In short: (§2)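 Replicon cells stably carrying the listed RLuc-encoding dicistronic replicons were seeded and treated with DMSO serial dilutions of compound (10 mM stocks) diluted into culture medium. After 72 h, cells were lysed and Renilla luciferase activity measured. EC50 was derived by non-linear regression.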

[5] = tested on: HCV 3a RLuc cells (NS5A chimeric genotype 1b Con1 replicon with consensus genotype 3a NS5A gene); assay: microbe, parasite or virus in culture; details: Hepatitis C virus
In short: as §2

[6] = tested on: HCV 4a Rluc cells (NS5A chimeric genotype 1b Con1 replicon with genotype 4a NS5A gene); assay: microbe, parasite or virus in culture; details: Hepatitis C virus, read-out: 4a
In short: as §2

[7] = tested on: HCV 2a Rluc cells (NS5A chimeric genotype 2a JFH-1 replicon with genotype 2a J6 strain NS5A gene, M31 present); assay: HCV replicon reporter assay, genotype 2a J6 (M31 present); details: Hepatitis C virus, read-out: 2a J6
In short: as §1

[8] = read-out: 3a, genotype 3a replicon
[9] = genotype 2a JFH-1 RLuc replicon
[10] = read-out: 3a, genotype 3a NS5A chimeric replicon

Row | Structure (SMILES) | EC50 ([1]; genotype 1a replicon) [nM] | EC50 [2] [nM] | EC50 ([3]; genotype 2a JFH-1 replicon) [nM] | EC50 [4] [nM] | EC50 [5, 8] [nM] | EC50 [6] [nM] | EC50 [7] [nM] | EC50 ([1]; genotype 1a H77 RLuc replicon) [nM] | EC50 [3, 9] [nM] | EC50 [5, 10] [nM]
1 | COC[C@H]1C[C@@H](c2nc3ccc4cc(-c5ccc(-c6cnc([C@@H]7CCCN7C(=O)[C@H](N)c7ccccc7)[nH]6)cc5)ccc4c3[nH]2)N(C(=O)[C@@H](NC(=O)OC)C(C)C)C1 [Example 477] | 0.001 to 0.999 | 0.089 | 0.001 to 0.999 | 0.001 to 0.999 | 0.001 to 0.99 | 0.001 to 0.99 | 0.001 to 0.999 |  |  | 
2 | CCC(=O)N[C@@H](C(=O)N1CCC[C@H]1c1ncc(-c2ccc(-c3ccc4c(ccc5nc([C@@H]6C[C@H](COC)CN6C(=O)[C@@H](NC(=O)OC)C(C)C)[nH]c54)c3)cc2)[nH]1)c1ccccc1 [Example 479] | 0.001 to 0.999 | 0.034 | 0.001 to 0.999 | 0.001 to 0.999 | 0.001 to 0.99 | 0.001 to 0.99 | 0.001 to 0.999 |  |  | 
3 | COCCC(=O)N[C@@H](C(=O)N1CCC[C@H]1c1ncc(-c2cc3c4c(c2)OCc2cc(-c5cnc([C@@H]6CCCN6C(=O)[C@H](NC(=O)CCOC)c6ccccc6)[nH]5)cc(c2-4)OC3)[nH]1)c1ccccc1 [Example 480] | 0.001 to 0.999 | 0.684 | 0.001 to 0.999 | 0.001 to 0.999 | 0.001 to 0.99 | 0.001 to 0.99 | 1 to 44 |  |  | 
4 | CC(C)CC(=O)N[C@@H](C(=O)N1CCC[C@H]1c1ncc(-c2cc3c4c(c2)OCc2cc(-c5cnc([C@@H]6CCCN6C(=O)[C@H](NC(=O)CC(C)C)c6ccccc6)[nH]5)cc(c2-4)OC3)[nH]1)c1ccccc1 [Example 481] | 0.001 to 0.999 | 0.058 | 0.001 to 0.999 | 0.001 to 0.999 | 0.001 to 0.99 | 0.001 to 0.99 | 0.001 to 0.999 |  |  | 
5 | O=C(N[C@@H](C(=O)N1CCC[C@H]1c1ncc(-c2cc3c4c(c2)OCc2cc(-c5cnc([C@@H]6CCCN6C(=O)[C@H](NC(=O)c6ccccn6)c6ccccc6)[nH]5)cc(c2-4)OC3)[nH]1)c1ccccc1)c1ccccn1 [Example 482] | 0.001 to 0.999 | 0.034 | 0.001 to 0.999 | 0.001 to 0.999 | 0.001 to 0.99 | 0.001 to 0.99 | 0.001 to 0.999 |  |  | 
6 | COC(=O)N[C@H](C(=O)N[C@@H](C(=O)N1CCC[C@H]1c1ncc(-c2cc3c4c(c2)OCc2cc(-c5cnc([C@@H]6CCCN6C(=O)[C@H](NC(=O)[C@@H](NC(=O)OC)C(C)C)c6ccccc6)[nH]5)cc(c2-4)OC3)[nH]1)c1ccccc1)C(C)C [Example 483] | 1 to 44 | 0.814 | 0.001 to 0.999 | 0.001 to 0.999 | 0.001 to 0.99 | 0.001 to 0.99 | > 44 |  |  | 
7 | CC(C)[C@@H](C(=O)N[C@@H](C(=O)N1CCC[C@H]1c1ncc(-c2cc3c4c(c2)OCc2cc(-c5cnc([C@@H]6CCCN6C(=O)[C@H](NC(=O)[C@H](C(C)C)N(C)C)c6ccccc6)[nH]5)cc(c2-4)OC3)[nH]1)c1ccccc1)N(C)C [Example 484] | > 44 | 0.953 | 0.001 to 0.999 | > 44 | 0.001 to 0.99 | 0.001 to 0.99 | > 44 |  |  | 
8 | CC(C)[C@H](NC(=O)OC(C)(C)C)C(=O)N[C@@H](C(=O)N1CCC[C@H]1c1ncc(-c2cc3c4c(c2)OCc2cc(-c5cnc([C@@H]6CCCN6C(=O)[C@H](NC(=O)[C@@H](NC(=O)OC(C)(C)C)C(C)C)c6ccccc6)[nH]5)cc(c2-4)OC3)[nH]1)c1ccccc1 [Example 485] | 1 to 44 | 0.17 | 0.001 to 0.999 | > 44 | 0.001 to 0.99 | 0.001 to 0.99 | > 44 |  |  | 
9 | CC(C)COC(=O)N[C@@H](C(=O)N1CCC[C@H]1c1ncc(-c2cc3c4c(c2)OCc2cc(-c5cnc([C@@H]6CCCN6C(=O)[C@H](NC(=O)OCC(C)C)c6ccccc6)[nH]5)cc(c2-4)OC3)[nH]1)c1ccccc1 [Example 487] | 0.001 to 0.999 | 0.027 | 0.001 to 0.999 | 1 to 44 | 0.001 to 0.99 | 0.001 to 0.99 | > 44 |  |  | 
10 | CC(C)OC(=O)N[C@@H](C(=O)N1CCC[C@H]1c1ncc(-c2cc3c4c(c2)OCc2cc(-c5cnc([C@@H]6CCCN6C(=O)[C@H](NC(=O)OC(C)C)c6ccccc6)[nH]5)cc(c2-4)OC3)[nH]1)c1ccccc1 [Example 488] |  | 0.03 |  | 0.001 to 0.999 |  | 0.001 to 0.99 | 1 to 44 | 0.001 to 0.999 | 0.001 to 0.999 | 0.001 to 0.99
11 | O=C(N[C@@H](C(=O)N1CCC[C@H]1c1ncc(-c2cc3c4c(c2)OCc2cc(-c5cnc([C@@H]6CCCN6C(=O)[C@H](NC(=O)C6CCCC6)c6ccccc6)[nH]5)cc(c2-4)OC3)[nH]1)c1ccccc1)C1CCCC1 [Example 489] |  | 0.048 |  | 0.001 to 0.999 |  | 0.001 to 0.99 | 0.001 to 0.999 | 0.001 to 0.999 | 0.001 to 0.999 | 0.001 to 0.99
